Data from patent US20240050400A1, “Use of the Sesquiterpene Lactone Tomentosin in the Treatment of Tumors Caused by Lymphoid Cell Lines” (Universita Degli Studi Di Sassari, priority 2021, published 2024).
pIC50: −log10 of the molar value.

How the values were obtained:
[1] = test system: MM.1S (of multiple myeloma) cells; assay: Cell proliferation (CellTiter-Glo) and cytotoxicity (CellTox Green) test, MM.1S; type: cell-based; details: MM.1S cells; for effect on cells (cell proliferation / cell death): 48 hours of treatment
Protocol: (§1) The molecules were tested at 7 different concentrations: 50 μM, 25 μM, 12.5 μM, 6.25 μM, 3.125 μM, 1.56 μM, 0.75 μM, in culture with lymphoid tumor (myeloma, lymphoma) cell lines.
(§2) Tested cell lines: • MM.1S (of multiple myeloma), cultivated in RPMI-1640 medium, 10% FBS, L-Glutamine, AA • RPMI-8226 (of multiple myeloma), cultivated in RPMI-1640 medium, 10% FBS, L-Glutamine, AA; • Raji (of Burkitt lymphoma), cultivated in RPMI-1640 medium, 10% FBS, L-Glutamine, AA; • MRC5 (of pulmonary fibroblasts), cultivated in DMEM medium, 10% FBS, L-Glutamine, AA, Pyruvate Sodium, NEAA.
(§3) After 48 hours of treatment, drug-induced cellular death was estimated by measuring the intensity of the fluorescence signal after staining the dead cells using a known method (CellTox Green Dye—Promega).
(§4) Soon afterwards, the number of live cells was evaluated by adding CellTiter Glo P (Promega) reagent, through which the cell lysis and the luminescence signal are directly proportional to the ATP levels in each sample.
(§5) 24 hours prior to the addition of the compound under examination, the cells resuspended at adequate concentrations were seeded in 384-well flat clear bottom black polystyrene TC-treated microplates (Corning 3764).
(§6) Each well contained 20 μL of cell suspension. The day after, […] of the molecules under examination, with integrated CellTox (Promega G8731) green dye, were added to each sample to obtain the desired treatment concentrations.
(§7) The seeding of the cells, the preparation of the serial dilutions, and the addition of the molecules to the cells were performed using an automated liquid pipetting platform (Gilson Pipetmax).
(§8) 48 hours after the treatment, the intensity of the global green fluorescence in each well was quantified using Biotek Cytation 5. For each sample, four images were taken to cover the whole area of the well. Image merging, processing and background removal were performed using the Gen5 software. Immediately after the fluorescence reading, 30 μL of CellTiter Glo reagent (Promega G7571) just prepared were added to each well, and each sample was mixed 5 times. Ten minutes later, a luminescence reading was taken. Three technical replicates for each condition under examination were plated.
(§9) CellTiter-Glo is a reagent used for determining the number of viable cells in a culture based on the quantification of ATP, which signals the presence of metabolically active cells.
(§10) The reagent is added directly to the samples, resulting in cell lysis and generation of a luminescent signal that is proportional to the quantity of ATP. The luminescence signal is quantified using Promega Glo-Max Discover.
(§11) The CellTox green dye measures the changes that have occurred in the integrity of the membrane following cell death. The test uses a dye which is excluded from viable cells while coloring the DNA of dead cells. When the dye binds to the DNA of the compromised cells, the fluorescent properties of the dye are enhanced, whereas viable cells produce no perceptible increase in fluorescence. Therefore, the fluorescent signal produced by the dye is proportional to cytotoxicity. Fluorescence intensity (GFI) is quantified by means of a Biotek Cytation 5 wide-field automated digital microscope, led cube 465 nm, filter cube excitation 469±25 nm, emission 525±25 nm.
(§12) Cell viability is calculated as relative cell count (R): […]
(§13) where T is the number of cells in the treated sample and U is the number of cells in the untreated sample. […]

[2] = test system: RPMI-8226 (of multiple myeloma) cells; assay: Cell proliferation (CellTiter-Glo) and cytotoxicity (CellTox Green) test, RPMI-8226; type: cell-based; details: RPMI-8226 cells; for effect on cells (cell proliferation / cell death): 0.75-50 μM, 48 hours of treatment
Protocol: The molecules were tested at 7 different concentrations: 50 μ[…], in culture with lymphoid tumor (myeloma, lymphoma) cell lines. Tested cell lines: • MM.1S (of multiple myeloma), cultivated in RPMI-1640 medium, 10% FBS, L-Glutamine, AA • RPMI-8226 (of multiple myeloma), cultivated in RPMI-1640 medium, 10% FBS, L-Glutamine, AA; • Raji (of Burkitt lymphoma), cultivated in RPMI-1640 medium, 10% FBS, L-Glutamine, AA; • MRC5 (of pulmonary fibroblasts), cultivated in DMEM medium, 10% FBS, L-Glutamine, AA, Pyruvate Sodium, NEAA. […] After 48 hours of treatment, drug-induced cellular death was estimated by measuring the intensity of the fluorescence signal after staining the dead cells using a known method (CellTox Green Dye-Promega). Soon afterwards, the number of live cells was evaluated by adding CellTiter Glo P (Promega) reagent, through which the cell lysis and the luminescence signal are directly proportional to the ATP levels in each sample. 24 hours prior to the addition of the compound under examination, the cells resuspended at adequate concentrations were seeded in 384-well flat clear bottom black polystyrene TC-treated microplates (Corning 3764). Each well contained 20 μL of cell suspension. […] The seeding of the cells, the preparation of the serial dilutions, and the addition of the molecules to the cells were performed using an automated liquid pipetting platform (Gilson […]). 48 hours after the treatment, the intensity of the global green fluorescence in each well was quantified using Biotek Cytation 5. […] Immediately after the fluorescence reading, 30 μL of CellTiter Glo reagent (Promega G7571) just prepared were added to each well, and each sample was mixed 5 times. Ten minutes later, a luminescence reading was taken. […] CellTiter-Glo is a reagent used for determining the number of viable cells in a culture based on the quantification of ATP, which signals the presence of metabolically active cells. The reagent is added directly to the samples, resulting in cell lysis and generation of a luminescent signal that is proportional to the quantity of ATP. The luminescence signal is quantified using Promega Glo-Max Discover. […] When the dye binds to the DNA of the compromised cells, the fluorescent properties of the dye are enhanced, whereas viable cells produce no perceptible increase in fluorescence. […] Fluorescence intensity (GFI) is quantified by means of a Biotek Cytation 5 wide-field automated digital microscope, led cube 465 nm, filter cube excitation 469±25 nm, emission 525±25 nm. Cell viability is calculated as relative cell count (R): R=T/U×100 where T is the number of cells in the treated sample and U is the number of cells in the untreated sample. […] Cell death is measured as green fluorescence intensity (GFI).

[3] = test system: Raji (of Burkitt lymphoma) cells; assay: Cell proliferation (CellTiter-Glo) and cytotoxicity (CellTox Green) test, Raji; type: cell-based; details: for effect on cells (cell proliferation / cell death): 48 hours of treatment
Protocol: as §1, §2, §3, §4, §5, §6, §7, §8, §9, §10, §11, §12, §13

[4] = test system: MRC5 (of pulmonary fibroblasts) non-tumor cells; assay: Cell proliferation (CellTiter-Glo) and cytotoxicity (CellTox Green) test, MRC5 non-tumor control; type: cell-based; details: for IC50 relative to the maximum concentration tested: highest tested concentration 50 μM
Protocol: The MRC5 cell line was used as a control to evaluate if these molecules were toxic also towards non-tumor cells.
Soon afterwards, the number of live cells was evaluated by adding CellTiter Glo P (Promega) reagent, through which the cell lysis and the luminescence signal are directly proportional to the ATP levels in each sample. […]

[5] = test system: aggressive human melanoma cell lines; details: cited from earlier work
[6] = test system: MOLT-4 cell line of human leukemia; details: through inhibition of the mTOR/PI3K/Akt signalling pathway; cited from earlier work
[7] = highest tested concentration 50 μM

Compound	anti-proliferative activity ([1]; 0.75-50 μM)	IC50 relative to the maximum concentration tested [1, 7]	effect on cells (cell proliferation / cell death) [2]	anti-proliferative activity ([3]; 0.75-50 μM)	IC50 relative to the maximum concentration tested [3, 7]	IC50 relative to the maximum concentration tested [4]	pro-apoptotic effect [5]	effect on cells (cell proliferation / cell death) ([1]; 0.75-50 μM)	effect on cells (cell proliferation / cell death) ([3]; 0.75-50 μM)	anti-proliferative activity ([4]; 0.75-50 μM)	effect on cell proliferation and apoptosis [6]	pIC50 ([1]; after 72 hours of culture)	pIC50 ([2]; after 72 hours of culture)	pIC50 ([3]; after 72 hours of culture)
C=C1C(=O)O[C@H]2CC(=C)[C@H]3CC[C@@](C)(O)[C@@H]3C[C@H]12 [Inuvisculide]	low anti-proliferative activity	> the maximum concentration	cytostatic effect	low anti-proliferative activity	> the maximum concentration	> the maximum concentration	strong pro-apoptotic effect							
C=C1C(=O)O[C@@H]2C[C@H](C)C(CCC(C)=O)=CC[C@H]12 [Tomentosin]			cytostatic effect			> the maximum concentration	strong pro-apoptotic effect	cytotoxic effect	cytotoxic effect	low anti-proliferative activity	inhibits cell proliferation and induces apoptosis			
N.N.[Cl][Pt][Cl] [cysplatin, Cisplatin]			reduced cell proliferation and increased cell death					reduced cell proliferation and increased cell death	reduced cell proliferation and increased cell death			4.91	4.83	4.59
